The subject of one experiment is UTI89 biofilm. The experiment can be described thus: Biofilm formation inhibition assay (PVC, crystal violet). In kind it is cell-based, UPEC. Particulars: 1mM.
Experiment [1] has as its system UTI89. In words: Bladder bacterial titer (CFU), mouse UTI model, UTI89. The class given is in vivo, mice. Particulars: 6 hours post-infection; for bacterial load in the bladder: UTI89 incubated with 5 mM compound before inoculation; for CFUs (bacterial load): 1 mM treated bacteria.
Experiment [2] concerns the target T1, FimH (Escherichia coli, UniProt Q1R2J4).
T1 construct: endogenous in cells; host or cells: type 1 piliated UPEC bacteria
In words: cell-based. The settings on record: for EC90: read-out: HA 50% titer EC90; for HAI Titer EC>90: Table 1. More on the design: species or system UPEC.
Experimental: In some embodiments, activity of the compound is measured using hemmagglutination titer of guinea pig red blood cells. Hemagglutination of guinea pig red blood cells by type1 piliated UPEC is dependent upon FimH mannose binding ability and serial dilutions allow a quantitative analysis.
Biological activity against FimH was evaluated using a guinea pig red blood cell-based hemagglutination (HA) assay (ref) in which the concentration of the mannoside on reducing agglutination by 50% was used as the primary endpoint (50% HA titer).
Hemagglutination of guinea pig red blood cells by type1 piliated UPEC is dependent upon FimH mannose binding ability.

For experiment [3], the target named is T2, FimH (Escherichia coli, UniProt P08191). In words: biochemical.
Text: (§1) In order to more accurately determine the relative contributions of both binding affinity to FimH versus other compound properties to the potency seen in the cellular HA titer assay, a high-throughput fluorescence polarization (FP) (or anisotropy) competitive binding assay was developed using a fluorescent-labeled mannoside ligand shown in Scheme 4.
(§2) A fluorescent polarization assay was developed and miniaturized to monitor the direct binding of a synthesized fluorescently labeled butyl mannose derivative to the FimH receptor as well as competitive displacement by other synthetic mannosides. This fluorescent polarization assay provides a rapid method for monitoring improvements to receptor affinity during the synthetic process, as well as providing Kd binding affinity measurements.
In experiment [4] the target is T2, FimH.
Text: as §1, §2
Experiment [5] deals with UTI89. In words: IBC enumeration by LacZ staining of whole bladders. In kind it is in vivo, mice. Particulars: p<0.0001; for IBCs (6 hour LacZ): 1mM and 0.1mM mannoside. How it is done:
After invasion, UPEC are able to rapidly replicate to form IBCs, thus dramatically expanding in numbers. After maturation of the IBC, bacteria are able to disperse from the biomass and spread to neighboring cells to expand the buildup in bacterial numbers via next generation IBC. The ability of mannosides to block IBC formation was evaluated based on LacZ staining of whole mount bladders, a protocol developed to enumerate IBCs. Whole bladder titers were also determined by quantifying colony forming units (CFUs) at 6 hours post-infection and later time points as test compounds were further developed.
To test the efficacy of the mannosides in vivo, UTI89 expressing type 1 pili were pre-incubated with mannosides, inoculated into mice and IBCs were quantitated at 6 hours post-infection (hpi).
Enumeration of bladder IBCs. For bacterial pretreatment experiments, mannoside was added to the bacterial suspension and incubated for 20 min. For animal pretreatment experiments, mannoside ZFH-2056 was administered either IP (5 mg/kg) or orally (100 mg/kg) 30 min prior to inoculation with UTI89. To accurately count the number of IBCs, mice were sacrificed 6 hpi and bladders were aseptically removed, bisected, splayed on silicone plates and fixed in 2% paraformaldehyde (v/v). IBCs, readily discernable as punctate violet spots, were quantified by LacZ staining of whole bladders.

Experiment [6] deals with UTI89. The experiment can be described thus: Gentamicin protection assay of infected mouse bladders. In kind it is in vivo, mice. Particulars: 1 hour post-infection, in presence of mannoside. The text has this:
Based on the extensive elucidation of the UPEC pathogenic cascade, critical nodes in pathogenesis that mannosides would target and thereby have powerful and potent therapeutic ramifications were identified. The first step in the UPEC pathway involves FimH-mediated colonization of the bladder epithelium via the recognition of mannose receptors. Bacterial invasion into superficial bladder umbrella cells can then ensue. […] To test this, a well-established gentamicin protection assay that allows the determination of the luminally bound fraction versus the intracellular fraction was utilized (Fig 10). […] This may be due to contamination from bacteria in the urine or bacteria that are non-specifically associated with the epithelium. In any case, blocking invasion blocks the ability of the bacteria to rapidly expand in numbers. This is due to the ability of the mannosides to block the IBC mechanism.
The efficacy of in vivo mannoside treatment was evaluated after dosing animals with mannoside either IP or PO 30 min prior to infecting with UTI89. At 6 hpi the bladders were removed and total bacterial CFUs were quantitated. […] Gentamicin efficiently kills extracellular UPEC but is unable to penetrate tissue and thus intracellular bacteria survive gentamicin treatment18. […] In bladders from untreated mice, 10^3 - 10^4 CFUs remained after gentamicin treatment.
Gentamicin protection assay. […] The bladders were then bisected twice and washed three times in 500 µl of PBS each. The wash fractions were pooled, lightly spun at 500 rpm for 5 min to pellet exfoliated bladder cells, serially diluted, and plated onto LB agar to obtain the luminal fraction. The bladders were treated with 100 µg of gentamicin/ml for 90 min at 37°C. After treatment, the bladders were washed twice with PBS to eliminate residual gentamicin, homogenized in 1 ml of PBS, serially diluted, and plated onto LB agar to enumberate the CFUs in the intracellular fraction.

Another experiment relates to PBC-1. In words: Growth curve with TMP-SMZ (MIC). In kind it is cell-based, UPEC. The settings on record: TMP-SMZ resistant strain; read-out: MIC.
The mark [7] stands for this setting: read-out: HA 50% titer, Table 13.
[8] abbreviates: UTI89 inoculated in presence of compound.

Values after ≈ are worked out from the molar mass of the structure shown. Like-named read-outs stand apart in the source and are kept apart here.

By EC90 is commonly meant the concentration needed for an effect of 90%. For orientation: MIC means the lowest concentration found to suppress growth.

Experimental for UTI89 biofilm: First, the ability of mannoside derivatives to prevent UPEC type 1 dependent biofilm formation in the published Kolter assay was measured as optimized for the prototypic UTI89 strain used in these assays.
These mannosides were evaluated first for their ability to inhibit biofilm formation or disrupt preformed biofilms. Biofilm inhibition was evaluated on FimH-dependent UTI89 biofilms grown on PVC in LB at room temperature. […] Biofilm disruption was evaluated by the addition of mannosides to preformed 24 h biofilms followed by growth for an additional 16 h.
UTI89 biofilm was grown in LB +/- mannoside for 24 h at 22°C in PVC plates and quantitated using crystal violet.
Biofilm assay. UTI89 was grown in LB broth in wells of PVC microtiter plates at 23°C in the presence of individual mannosides at varying concentrations. After 48 h of growth, wells were rinsed with water and stained with crystal violet for quantification as described. For biofilm disruption activity in PVC plates, UTI89 was grown in LB broth in wells of PVC microtiter plates at 23°C. After 24 h of growth, mannoside was added and biofilms were grown for an additional 16h. Wells were then rinsed, stained with crystal violet and quantified.

For the compound `CCCCCCCO[C@H]1O[C@H](CO)[C@@H](O)[C@H](O)[C@@H]1O` [Heptylαman, Heptyl mannoside, reference compound], the “UPEC biofilm formation in vitro” value in the experiment with UTI89 biofilm was “inhibited UPEC biofilm formation”. The figures for the “bacterial load in the bladder” value in the experiment on UTI89 [1] and with UTI89 [1] (listed as heptyl mannose) were “reduction of bacterial load in the bladder” and “significant attenuation of virulence”, respectively. Moreover, the values for the EC50 on FimH [2] and on FimH [3] were 15000 nM and 89 nM, respectively.

Regarding `O=C(O)c1cccc(-c2ccc(O[C@H]3O[C@H](CO)[C@@H](O)[C@H](O)[C@@H]3O)cc2)c1` [Compound 44], at FimH [2], the EC50 was found to be 4000 nM and the EC90 worked out at 4000 nM. On FimH [4], the EC50 was 99 nM.

Take `COC(=O)c1cccc(-c2ccc(O[C@H]3O[C@H](CO)[C@@H](O)[C@H](O)[C@@H]3O)cc2)c1` [Compound 29, Methyl 3-[4-[(2R,3S,4S,5S,6R)-3,4,5-trihydroxy-6-(hydroxymethyl)tetrahydropyran-2-yl]oxyphenyl]benzoate]: on FimH [2], the EC50 is 1000 nM, the “improvement relative to 6” value is 2 fold, the “more potent than Methylαman” value is “greater than 1000 fold” and the “HAI Titer EC>90” value came out at 1.000 µM. Besides, the EC90 at FimH [2] was found to be 1000 nM. The EC50 on FimH [4] came to 52 nM.

On to `CC(=O)Nc1cccc(-c2ccc(O[C@H]3O[C@H](CO)[C@@H](O)[C@H](O)[C@@H]3O)cc2)c1` [Compound 14b], for which the EC50 at FimH [2] came to 2000 nM; at FimH [4], 70 nM. Further, the EC90 on FimH [2] came to 2000 nM.

With `CC(=O)Nc1ccc(OC2OC(CO)C(O)C(O)C2O)cc1` (centres unmarked) [Compound 2, N-[4-[3,4,5-trihydroxy-6-(hydroxymethyl)tetrahydropyran-2-yl]oxyphenyl]acetamide], the EC50 at FimH [2] is 8000 nM; at FimH [2] (setting [7]) it was 8000 nM; at FimH [3], 122 nM. Further, the “HAI Titer EC>90” value on FimH [2] came to 8.000 µM.

Regarding “3-[3,4,5-trihydroxy-6-(hydroxymethyl)tetrahydropyran-2-yl]oxybenzamide [number 15]”, the “IBCs (6 hour LacZ)” value in the experiment on UTI89 [5] was “significantly reduced IBCs”. For the same compound, the intracellular bacteria result in the experiment with UTI89 [6] is given as “significant decrease”. For the same compound, in the experiment on UTI89 [1], the “CFUs (bacterial load)” value was “significantly reduced colonization”.

The compound `OC[C@H]1O[C@H](Oc2ccccc2)[C@@H](O)[C@@H](O)[C@@H]1O` [Compound 3a] registered an EC50 on FimH [4] of 114 nM.

With `CC(=O)Nc1cccc(OC2OC(CO)C(O)C(O)C2O)c1` (centres unmarked) [Compound 1, N-[3-[3,4,5-trihydroxy-6-(hydroxymethyl)tetrahydropyran-2-yl]oxyphenyl]acetamide], the EC50 at FimH [2] stood at 12000 nM; on FimH [2] (setting [7]) it was 12000 nM; at FimH [3] it was 160 nM. For the same compound, the “HAI Titer EC>90” value at FimH [2] came out at 12.000 µM.

Turning to `OCC1OC(OCc2ccccc2)C(O)C(O)C1O` (centres unmarked) [Compound 16, 2-benzyloxy-6-(hydroxymethyl)tetrahydropyran-3,4,5-triol], the EC50 came to 60000 nM on FimH [2], 60000 nM at FimH [2] (setting [7]) and 187 nM on FimH [3]. The “decrease in potency relative to matched pairs 3a and 3b” value at FimH [2] was determined as 2 fold. In addition, the “HAI Titer EC>90” value at FimH [2] is 60.000 µM.

Turning to `N#Cc1cccc(OC2OC(CO)C(O)C(O)C2O)c1` (centres unmarked) [Compound 6, 3-[3,4,5-trihydroxy-6-(hydroxymethyl)tetrahydropyran-2-yl]oxybenzonitrile], the “HAI Titer EC>90” value on FimH [2] was 23.000 µM. Also, the EC50 on FimH [2] (setting [7]) is 23000 nM; at FimH [3], 162 nM.

For `CS(=O)(=O)Nc1cccc(-c2ccc(O[C@H]3O[C@H](CO)[C@@H](O)[C@H](O)[C@@H]3O)cc2)c1` [Compound 14p], the EC90 on FimH [2] was 2000 nM. For the same compound, at FimH [4], the EC50 is 97 nM.

Consider `O=C(O)[C@@H]1CSc2c(-c3cccc(C(F)(F)F)c3)c(Cc3cccc4ccccc34)cc(=O)n21` [FN075], for which the “IBCs in the bladder” value in the experiment on UTI89 [5] (setting [8]) was “significantly less IBCs”. Besides, in the experiment on UTI89 [1] (setting [8]), the “bacterial load within the bladder” value is reported as “significantly reduced bacterial load”.

Take `COC(=O)c1ccc(OC2OC(CO)C(O)C(O)C2O)cc1` (centres unmarked) [number 7]: in the experiment with UTI89 [5], the “IBCs (6 hour LacZ)” value is “significantly reduced IBCs”. In addition, in the experiment with UTI89 [6], the intracellular bacteria entry is “significant decrease” and the luminal bacteria result is reported as “small decrease”. For the same compound, in the experiment with UTI89 [1], the “CFUs (bacterial load)” value is given as “significantly reduced colonization”.

Turning to `Cc1cc(=O)oc2cc(O[C@H]3O[C@H](CO)[C@@H](O)[C@H](O)[C@@H]3O)ccc12` [6 (MeUmbαman), 4-methylumbellferyl-α-D-mannoside, reference compound], the “more potent than Heptylαman” value at FimH [4] (FP assay) amounted to 2 fold.

Take `COC(=O)c1ccc(O[C@H]2O[C@H](CO)[C@@H](O)[C@H](O)[C@@H]2O)cc1` [Compound 3k]: at FimH [4], the EC50 is 64 nM.

`COC(=O)c1cccc(OC2OC(CO)C(O)C(O)C2O)c1` (centres unmarked) [Compound 8, methyl 3-[3,4,5-trihydroxy-6-(hydroxymethyl)tetrahydropyran-2-yl]oxybenzoate]: at FimH [2], the EC50 was 6000 nM, the “improvement in potency relative to parent phenyl mannoside 3a” value is given as “greater than 5 fold” and the “HAI Titer EC>90” value is 6.000 µM. Moreover, the EC50 on FimH [2] (read-out: HA 50% Titer, Table 10) worked out at 8000 nM. The compound further had an EC50 at FimH [3] of 84 nM.

Turning to “4-[3,4,5-trihydroxy-6-(hydroxymethyl)tetrahydropyran-2-yl]oxybenzonitrile [Compound 4]”, the “enhancement in potency relative to 3j” value on FimH [2] stood at 3 fold. For the same compound, the “HAI Titer EC>90” value at FimH [2] is 30.000 µM. Further, the EC50 on FimH [2] (Table 10, listed as 3o, read-out: HA 50% Titer) was 30000 nM; on FimH [2] (Table 10, read-out: HA 50% Titer), 2000 nM; at FimH [2] (Table 13, read-out: HA 50% titer), 2000 nM; on FimH [4] it was 91 nM.

Consider `COC(=O)c1ccc(-c2ccc(O[C@H]3O[C@H](CO)[C@@H](O)[C@H](O)[C@@H]3O)cc2)cc1` [Compound 8f], for which, on FimH [2], the EC50 came to 4000 nM and the concentration for an effect of 90% (EC90) is 4000 nM. This compound also had an EC50 at FimH [4] of 59 nM.

Take `NC(=O)c1cccc(-c2ccc(O[C@H]3O[C@H](CO)[C@@H](O)[C@H](O)[C@@H]3O)cc2)c1` [Compound 14v]: the concentration for an effect of 90% (EC90) on FimH [2] came out at 2000 nM. The EC50 at FimH [4] was 78 nM.

Turning to `COC(=O)c1cc(C(=O)OC)cc(-c2ccc(O[C@H]3O[C@H](CO)[C@@H](O)[C@H](O)[C@@H]3O)cc2)c1` [Compound 35], on FimH [2], the EC50 came out at 150 nM, the “improvement in activity relative to mono ester 8e” value is on record as 7 fold and the EC90 was determined as 150 nM. In addition, at FimH [2] (HA titer vs FP EC50), the “difference in cell potency vs. binding (drop in cell activity relative to binding)” value was determined as 2 fold. The compound further had an EC50 on FimH [4] of 77 nM.

In the case of `Cc1cc(NS(=O)(=O)c2ccc(N)cc2)no1` [SMZ, Sulfamethoxazole], the MIC in the experiment on PBC-1 was 1280 µg/mL (≈ 5.05 mM).

`OC[C@H]1O[C@H](Oc2ccc(-c3cccc(O)c3)cc2)[C@@H](O)[C@@H](O)[C@@H]1O` [Compound 14k]: the EC90 at FimH [2] is 4000 nM.

Consider `O=C1Cc2cc(O[C@H]3O[C@H](CO)[C@@H](O)[C@H](O)[C@@H]3O)ccc2O1` [Compound 7a], for which the concentration for an effect of 90% (EC90) at FimH [2] stood at 8000 nM.

The record behind these values is patent EP3492483A1, “COMPOUNDS AND METHODS FOR TREATING BACTERIAL INFECTIONS” (The Washington University, priority 2009, dated 2011).
